# Test system: IRE1-XBP1s (XBP1-RLuc splicing reporter in HEK293 T-REx cells)
# Assay: IRE1-XBP1s activation assay (XBP1-RLuc splicing reporter, HEK293 T-REx cells, luminescence relative to thapsigargin)
# Assay type: cell-based
# Conditions: 18 h, compound 10 μM, HEK293 T-REx XBP1-RLuc reporter cells, relative to thapsigargin (Tg) 500 nM, read-out: Activity (IRE1-XBP1s activation, luminescence as % signal relative to thapsigargin, % Tg)
# Procedure: IRE1-XBP1s activation Assay: HEK293 T-REx cells stably expressing the XBP1-RLuc splicing reporter were treated with an IRE1-XBP1s activator provided herein (10 μM) in the presence or absence of the IRE1 active site inhibitor 4μ8C (32 μM) for 18 h. Luminescence was shown as the percentage signal relative to thapsigargin (Tg) (500 nM, 18 h).
row,SMILES,activation at 10 µM [%]
1,CCc1nccnc1NCCC(=O)Nc1cnn(CC(=O)N(C)CCOc2ccc(C)cc2)c1 [Compound 142],30 to 50
2,Cc1ccc(OCCN(C)C(=O)Cn2cc(NC(=O)CCNc3cc(F)ncc3F)cn2)cc1 [Compound 143],< 30
3,Cc1ccc(OCCN(C)C(=O)Cn2cc(NC(=O)CCNc3cccc(F)n3)cn2)cc1 [Compound 144],> 50
4,Cc1ccc(OCCN(C)C(=O)Cn2cc(NC(=O)CCNc3cc(Cl)ccn3)cn2)cc1 [Compound 145],< 30
5,Cc1ccc(OCCN(C)C(=O)Cn2cc(NC(=O)CCNc3ncccc3F)cn2)cc1 [Compound 146],30 to 50
6,Cc1ccc(OCCN(C)C(=O)Cn2cc(NC(=O)CCNc3nccnc3Cl)cn2)cc1 [Compound 147],> 50
7,Cc1ccc(OCCN(C)C(=O)Cn2cc(NC(=O)CCNc3ncccc3Cl)cn2)cc1 [Compound 148],30 to 50
8,Cc1ccc(OCCN(C)C(=O)Cn2cc(NC(=O)CCNc3ccnc(Cl)c3)cn2)cc1 [Compound 149],> 50
9,Cc1ccc(OCCN(C)C(=O)Cn2cc(NC(=O)CCNc3c(F)cncc3Cl)cn2)cc1 [Compound 150],30 to 50
10,Cc1ccc(OCCN(C)C(=O)Cn2cc(NC(=O)CCNc3cncc(Cl)n3)cn2)cc1 [Compound 151],30 to 50
11,Cc1ccc(OCCN(C)C(=O)Cn2cc(NC(=O)CCNc3c(Cl)cncc3Cl)cn2)cc1 [Compound 152],> 50
12,Cc1ccc(OCCN(C)C(=O)Cn2cc(NC(=O)CCNc3ccnc(N)c3)cn2)cc1 [Compound 153],< 30
13,Cc1ccc(OCCN(C)C(=O)Cn2cc(NC(=O)CCNc3cccc(N)n3)cn2)cc1 [Compound 154],> 50
14,Cc1ccc(OCCN(C)C(=O)Cn2cc(NC(=O)CCNc3ccncc3)cn2)cc1 [Compound 155],< 30
15,Cc1ccc(OCCN(C)C(=O)Cn2cc(NC(=O)CCNc3cccc(Cl)n3)cn2)cc1 [Compound 156],> 50
16,Cc1ccc(OCCN(C)C(=O)Cn2cc(NC(=O)CCNc3ccc(C#N)cn3)cn2)cc1 [Compound 157],< 30
17,Cc1ccc(OCCN(C)C(=O)Cn2cc(NC(=O)CCNc3ccnc(N)n3)cn2)cc1 [Compound 158],< 30
18,Cc1ccc(OCCN(C)C(=O)Cn2cc(NC(=O)CCNc3nc(C)ccc3F)cn2)cc1 [Compound 159],30 to 50
19,Cc1ccc(OCCN(C)C(=O)Cn2cc(NC(=O)CCNc3cccc(C)n3)cn2)cc1 [Compound 160],30 to 50
20,Cc1ccc(OCCN(C)C(=O)Cn2cc(NC(=O)CCNc3ncncc3C(C)C)cn2)cc1 [Compound 161],> 50
21,Cc1ccc(OCCN(C)C(=O)Cn2cc(NC(=O)C(CNc3ncc(F)cn3)CC(C)C)cn2)cc1 (stereo not shown) [Compound 162],< 30
22,Cc1ccc(OCCN(C)C(=O)Cn2cc(NC(=O)C(O)CNc3ncc(F)cn3)cn2)cc1 (stereo not shown) [Compound 163],< 30
23,"Cc1ccc(OCCN(C)C(=O)Cn2cc(NC(=O)CCNc3ccnc(C)c3)cn2)cc1 [Compound 164, N-(1-(2-(methyl(2-(p-tolyloxy)ethyl)amino)-2-oxoethyl)-1H-pyrazol-4-yl)-3-((2-methylpyridin-4-yl)amino)propanamide]",30 to 50
24,Cc1ccc(OCCN(C)C(=O)Cn2cc(NC(=O)CCNc3ccc(OCc4ccccc4)cn3)cn2)cc1 [Compound 165],< 30

row,SMILES,activation at 10 µM [%]
1,COc1ccc(OCCN(C)C(=O)Cn2cc(NC(=O)CCNc3ccnc(C)c3)cn2)cc1 [Compound 166],< 30
2,Cc1ccc(OCCN(C)C(=O)Cn2cc(NC(=O)C(CNc3ccc(F)nc3C)c3ccccc3)cn2)cc1 (stereo not shown) [Compound 167],< 30
3,COc1ccc(OCCN(C)C(=O)Cn2cc(NC(=O)CCNc3cc(C)ncc3C)cn2)cc1 [Compound 168],30 to 50
4,COc1ccc(OCCN(C)C(=O)Cn2cc(NC(=O)CCNc3ccnc(OC)c3)cn2)cc1 [Compound 169],> 50
5,Cc1ccc(OCCN(C)C(=O)Cn2cc(NC(=O)[C@H](C)CNc3ccc(F)nc3C)cn2)cc1 [Compound 170],30 to 50
6,Cc1ccc(OCCN(C)C(=O)Cn2cc(NC(=O)[C@@H](CNc3ccc(F)nc3C)C(C)C)cn2)cc1 [Compound 171],30 to 50
7,Cc1ccc(OCCN(C)C(=O)Cn2cc(NC(=O)[C@H](CNc3ccc(F)nc3C)C(C)C)cn2)cc1 [Compound 172],30 to 50
8,Cc1ccc(OCCN(C)C(=O)Cn2cc(NC(=O)CCNc3cc(C)ncc3C)cn2)cc1 [Compound 173],< 30
9,Cc1ccc(OCCN(C)C(=O)Cn2cc(NC(=O)CCNc3cccnc3C)cn2)cc1 [Compound 174],30 to 50
10,COc1ccnc(NCCC(=O)Nc2cnn(CC(=O)N(C)CCOc3ccc(C)cc3)c2)c1 [Compound 175],30 to 50
11,Cc1ccc(OCCN(C)C(=O)Cn2cc(NC(=O)CCNc3ccc(C#N)nc3C)cn2)cc1 [Compound 176],< 30
12,Cc1ccc(OCCN(C)C(=O)Cn2cc(NC(=O)CCNc3cnc(C#N)c(F)c3)cn2)cc1 [Compound 177],30 to 50
13,Cc1ccc(OCCN(C)C(=O)Cn2cc(NC(=O)CCNc3ccc(Cl)nc3)cn2)cc1 [Compound 178],30 to 50
14,Cc1ccc(OCCN(C)C(=O)Cn2cc(NC(=O)CCNc3cnc(F)cc3C)cn2)cc1 [Compound 179],> 50
15,Cc1ccc(OCCN(C)C(=O)Cn2cc(NC(=O)CCNc3cncc(C)c3)cn2)cc1 [Compound 180],30 to 50
16,Cc1ccc(OCCN(C)C(=O)Cn2cc(NC(=O)CCNc3ccc(C)nc3F)cn2)cc1 [Compound 181],< 30
17,Cc1ccc(OCCN(C)C(=O)Cn2cc(NC(=O)CCNc3ccncc3Cl)cn2)cc1 [Compound 182],> 50
18,COc1ncc(Cl)cc1NCCC(=O)Nc1cnn(CC(=O)N(C)CCOc2ccc(C)cc2)c1 [Compound 183],< 30
19,Cc1ccc(OCCN(C)C(=O)Cn2cc(NC(=O)CCNc3cnc(F)c(Cl)c3)cn2)cc1 [Compound 184],> 50
20,Cc1ccc(OCCN(C)C(=O)Cn2cc(NC(=O)CCNc3cncc(C(F)(F)F)n3)cn2)cc1 [Compound 185],< 30
21,Cc1ccc(OCCN(C)C(=O)Cn2cc(NC(=O)CCNc3cccnc3C(F)(F)F)cn2)cc1 [Compound 186],> 50
22,COc1ncc(C(F)(F)F)cc1NCCC(=O)Nc1cnn(CC(=O)N(C)CCOc2ccc(C)cc2)c1 [Compound 187],30 to 50
23,COc1cccc(NCCC(=O)Nc2cnn(CC(=O)N(C)CCOc3ccc(C)cc3)c2)n1 [Compound 188],< 30
24,Cc1ccc(OCCN(C)C(=O)Cn2cc(NC(=O)CCNc3cccnc3F)cn2)cc1 [Compound 189],< 30

row,SMILES,activation at 10 µM [%]
1,Cc1ccc(OCCN(C)C(=O)Cn2cc(NC(=O)CCNc3ccnc(F)c3Cl)cn2)cc1 [Compound 190],< 30
2,CCOc1cc(NCCC(=O)Nc2cnn(CC(=O)N(C)CCOc3ccc(C)cc3)c2)ccn1 [Compound 191],< 30
3,Cc1ccc(OCCN(C)C(=O)Cn2cc(NC(=O)CCNc3ccncc3F)cn2)cc1 [Compound 192],> 50
4,Cc1ccc(OCCN(C)C(=O)Cn2cc(NC(=O)CCNc3ncc(F)cn3)cn2)cc1 [Compound 193],30 to 50
5,Cc1ccc(OCCN(C)C(=O)Cn2cc(NC(=O)CCNc3cc(C)cnc3F)cn2)cc1 [Compound 194],< 30
6,Cc1ccc(OCCN(C)C(=O)Cn2cc(NC(=O)CCNc3ncc(C)cc3C)cn2)cc1 [Compound 195],< 30
7,Cc1ccc(OCCN(C)C(=O)Cn2cc(NC(=O)CCNc3ccc(F)nc3C)cn2)cc1 [Compound 196],> 50
8,COc1ccc(NCCC(=O)Nc2cnn(CC(=O)N(C)CCOc3ccc(C)cc3)c2)c(C)n1 [Compound 197],30 to 50
9,COc1cnccc1NCCC(=O)Nc1cnn(CC(=O)N(C)CCOc2ccc(C)cc2)c1 [Compound 198],< 30
10,Cc1ccc(OCCN(C)C(=O)Cn2cc(NC(=O)CCNc3ccnc4ncnn34)cn2)cc1 [Compound 200],< 30
11,Cc1ccc(OCCN(C)C(=O)Cn2cc(NC(=O)OC3CCCN(c4ccnc(F)n4)C3)cn2)cc1 (stereo not shown) [Compound 201],< 30
12,Cc1ccc(OCCN(C)C(=O)Cn2cc(NC(=O)CCNc3cc(N)ccn3)cn2)cc1 [Compound 202],> 50
13,Cc1ncccc1NCCC(=O)Nc1cnn(CC(=O)N(C)CCOc2ccc(C(F)(F)F)cc2)c1 [Compound 204],< 30
14,Cc1ccc(OCCN(C)C(=O)Cn2cc(NC(=O)CCOc3ccc(N)cn3)cn2)cc1 [Compound 205],> 50
15,Cc1ccc(OCCN(C)C(=O)Cn2cc(NC(=O)CCNc3ncc(F)cc3C)cn2)cc1 [Compound 206],> 50
16,Cc1ccc(OCCN(C)C(=O)Cn2cc(NC(=O)CCNc3cc(C)ncc3F)cn2)cc1 [Compound 207],< 30
17,Cc1ccc(OCCN(C)C(=O)Cn2cc(NC(=O)CCNc3ccnc(C)c3F)cn2)cc1 [Compound 209],< 30
18,Cc1ccc(OCCN(C)C(=O)Cn2cc(NC(=O)CCNc3nc(C)ncc3C(C)C)cn2)cc1 [Compound 210],> 50
19,CNC(=O)c1cnc(NCCC(=O)Nc2cnn(CC(=O)N(C)CCOc3ccc(C)cc3)c2)nc1 [Compound 211],< 30
20,Cc1ccc(OCCN(C)C(=O)Cn2cc(NC(=O)CCNc3cnc(C)nc3)cn2)cc1 [Compound 212],< 30
21,CN(CCOc1ccc(C(F)(F)F)cn1)C(=O)Cn1cc(NC(=O)CCNc2c(F)cncc2Cl)cn1 [Compound 213],> 50
22,Cc1ccc(OCCN(C)C(=O)Cn2cc(NC(=O)CCNc3c(F)cnc(C)c3C3CC3)cn2)cc1 [Compound 214],> 50

# From patent publication US20260193236A1 (Protego Biopharma, Inc., priority 2022, published 2026)
